The record followed here is BindingDB's records for doi:10.1021/jm0600390 (Mcgill University Health Center/Royal Victoria Hospital, 2006).

Structures are written as SMILES.

For orientation: IC50 means the concentration that inhibits the measured activity by half. A high value points to weaker potency.

This assay in a line: Inhibition of serum-stimulated proliferation of mouse ERBB2 transfected NIH3T3 cell line after 24 hrs.
In turn, `Cc1cccc(Nc2ncnc3ccc(NC(=O)NCCCl)cc23)c1` [1-(2-chloroethyl)-3-{[4-(3-methylphenyl)amino]quinazolin-6-yl}urea] had an IC50 of 2100 nM.
Then `O=NN(CCCl)C(=O)Nc1ccc2ncnc(Nc3cccc(Cl)c3)c2c1` [1-(2-Chloroethyl)-1-nitroso-3-{[4-(3-chlorophenyl)amino]quinazolin-6-yl}urea], with 5400 nM; and `Cc1cccc(Nc2ncnc3ccc(N)cc23)c1` [N4-(3-methylphenyl)-4,6-quinazolinediamine], with 6390 nM.
Then `CNc1ccc2ncnc(Nc3cccc(C)c3)c2c1` [4-[(3-methylphenyl)amino]-6-(methylamino)quinazoline], with 2070 nM; and `Cc1cccc(Nc2ncnc3ccc(NC(=O)N(CCCl)N=O)cc23)c1` [1-(2-Chloroethyl)-1-nitroso-3-{[4-(3-methylphenyl)amino]quinazolin-6-yl}urea], with 12200 nM; and `O=C(NCCCl)Nc1ccc2ncnc(Nc3cccc(Cl)c3)c2c1` [1-(2-chloroethyl)-3-{[4-(3-chlorophenyl)amino]quinazolin-6-yl}urea], with 1350 nM.
As for `CN(C(=O)N(CCCl)N=O)c1ccc2ncnc(Nc3cccc(Cl)c3)c2c1` [1-(2-chloroethyl)-1-nitroso-3-methyl-3-{[4-(3-chloro-phenyl)amino]quinazolin-6-yl}urea], the figure is 680 nM.
With `Cc1cccc(Nc2ncnc3ccc(N(C)C(=O)N(CCCl)N=O)cc23)c1` [1-(2-chloroethyl)-1-nitroso-3-methyl-3-{[4-(3-methylphenyl)amino]quinazolin-6-yl}urea], the IC50 was 6880 nM.
Then `CNc1ccc2ncnc(Nc3cccc(Cl)c3)c2c1` [4-[(3-chlorophenyl)amino]-6-(methylamino)quinazoline], with 890 nM; and `O=C(NCCCl)Nc1ccc2ncnc(Nc3cccc(Br)c3)c2c1` [1-(2-chloroethyl)-3-{[4-(3-bromophenyl)amino]quinazolin-6-yl}urea], with 1770 nM; and `CN(C(=O)N(CCCl)N=O)c1ccc2ncnc(Nc3cccc(Br)c3)c2c1` [1-(2-chloroethyl)-1-nitroso-3-methyl-3-{[4-(3-bromophenyl)amino]quinazolin-6-yl}urea], with 3060 nM.
Then `Nc1ccc2ncnc(Nc3cccc(Br)c3)c2c1`, with 670 nM; and `O=NN(CCCl)C(=O)Nc1ccc2ncnc(Nc3cccc(Br)c3)c2c1` [1-(2-chloroethyl)-1-nitroso-3-{[4-(3-bromophenyl)amino]quinazolin-6-yl}urea], with 1150 nM.
Then `Nc1ccc2ncnc(Nc3cccc(Cl)c3)c2c1`, with 3290 nM; and `CNc1ccc2ncnc(Nc3cccc(Br)c3)c2c1` [4-N-(3-bromophenyl)-6-N-methylquinazoline-4,6-diamine], with 170 nM.
